# US20040137426A1, “Gp41 peptides and methods based thereon for inhibiting HIV fusion to target cells” (priority 2002, published 2004)
# Columns and labels:
# [1] = test system: HIV-1 IIIB; assay type: cell-based; details: lab-adapted HIV-1 IIIB
# Description: Both involved the culture of the virus with the peptide or its scrambled form for 1 hr at 37° C., 5% CO2 and then subsequent addition of target cells for 7 days. Inhibition was assessed using an enzyme-linked immunosorbent assay (ELISA) of viral core protein p24 antigen.
# [2] = test system: JRCSF; assay: Primary isolate infectivity in peripheral blood lymphocytes, p24 ELISA: JRCSF; assay type: cell-based, HIV-1
# Description: (§1) Infectivity studies were performed using the inhibition of HIV-1 infection of the gp41 derived peptides using receptor bearing cells for both HIV-1 T cell line adapted virus (HIV-1 IIIB) in MT2 cells and primary isolate virus (SF162, JRCSF and 89.6) in peripheral blood lymphocytes. Both involved the culture of the virus with the peptide or its scrambled form for 1 hr at 37° C., 5% CO2 and then subsequent addition of target cells for 7 days. Inhibition was assessed using an enzyme-linked immunosorbent assay (ELISA) of viral core protein p24 antigen.
# [3] = test system: 89.6; assay: Primary isolate infectivity in peripheral blood lymphocytes, p24 ELISA: 89.6; assay type: cell-based, HIV-1; details: primary isolate 89.6
# Description: as §1
# [4] = test system: SF162; assay: Primary isolate infectivity in peripheral blood lymphocytes, p24 ELISA: SF162; assay type: cell-based, HIV-1
# Description: as §1
# [5] = test system: BR94; assay: Primary isolate infectivity in PBMCs: patient isolate BR94 (clade B); assay type: cell-based, HIV-1
# [6] = test system: HIV-1; details: qualitative comparison
# Description: Peptides were tested in vitro for inhibition of early steps in cell-free HIV-1 infection and direct cell-to-cell spread of virus using T-cell line-adapted and primary isolates and recombinant HIV-1 viruses pseudotyped for env using CCR5, CXCR4 or both coreceptors.
# Selected de novo designed peptides according to the invention (S291, N36E, W37Q and W371) and the new analogues of T20, T21 and DP219 were evaluated for inhibition of both cell-free HIV-1 infection and of direct cell-to-cell spread using a range of T-cell line-adapted and primary isolates and recombinant HIV-1 pseudotyped for env derived from patient isolates of different clades.
structure (smiles),measurement,setting,value
CC[C@H](C)[C@H](NC(=O)[C@H](CC(C)C)NC(=O)[C@H](CO)NC(=O)[C@H](Cc1ccc(O)cc1)NC(=O)[C@@H](NC(=O)[C@H](CC(C)C)NC(=O)[C@H](CO)NC(=O)[C@@H](NC(=O)[C@H](Cc1ccc(O)cc1)NC(=O)[C@H](CC(N)=O)NC(=O)[C@H](CC(=O)O)NC(=O)[C@@H](NC(=O)[C@H](CCC(=O)O)NC(=O)[C@H](CCCNC(=N)N)NC(=O)[C@H](CCC(=O)O)NC(=O)[C@H](Cc1c[nH]c2ccccc12)NC(=O)[C@H](CCC(=O)O)NC(=O)[C@H](CCSC)NC(=O)[C@H](Cc1c[nH]c2ccccc12)NC(=O)[C@@H](NC(=O)[C@H](CCSC)NC(=O)[C@H](CC(N)=O)NC(=O)[C@H](CC(N)=O)NC(=O)[C@H](Cc1c[nH]c2ccccc12)NC(=O)[C@@H](NC(=O)[C@H](CCC(N)=O)NC(=O)[C@H](CCC(=O)O)NC(=O)[C@H](CC(C)C)NC(=O)[C@@H](N)CO)[C@@H](C)CC)[C@@H](C)O)[C@@H](C)CC)[C@@H](C)O)[C@@H](C)CC)C(=O)O [Peptide S29I],ID50% HIV-1IIIB infectivity,[1],9.37 µg/mL
same,ID90 HIV-1IIIB infectivity,[1],25 µg/mL
same,MIC HIV-1IIIB infectivity,[1],6.3 µg/mL
same,Primary isolate (ID50) JRCSF,[2],>50 µg/mL
same,Primary isolate (ID50) 89.6,[3],50 µg/mL
same,Primary isolate (ID50) SF162,[4],0.06 µg/mL
same,Primary isolate (ID50) BR94,[5],0 µg/mL
same,"activity compared with the new analogues of T-20, T-21 and DP219",[6],broadly similar levels of activity
